pIC50: −log10 of the molar value.
Biological target: T1, KCNT1 (KNa1.1, Slack) (Homo sapiens, UniProt Q5JUK3)
T1 construct: expressed in transfected cells; host or cells: HEK-TREX (tetracycline inducible cell line)
T1 sequence (Q5JUK3 1-1230): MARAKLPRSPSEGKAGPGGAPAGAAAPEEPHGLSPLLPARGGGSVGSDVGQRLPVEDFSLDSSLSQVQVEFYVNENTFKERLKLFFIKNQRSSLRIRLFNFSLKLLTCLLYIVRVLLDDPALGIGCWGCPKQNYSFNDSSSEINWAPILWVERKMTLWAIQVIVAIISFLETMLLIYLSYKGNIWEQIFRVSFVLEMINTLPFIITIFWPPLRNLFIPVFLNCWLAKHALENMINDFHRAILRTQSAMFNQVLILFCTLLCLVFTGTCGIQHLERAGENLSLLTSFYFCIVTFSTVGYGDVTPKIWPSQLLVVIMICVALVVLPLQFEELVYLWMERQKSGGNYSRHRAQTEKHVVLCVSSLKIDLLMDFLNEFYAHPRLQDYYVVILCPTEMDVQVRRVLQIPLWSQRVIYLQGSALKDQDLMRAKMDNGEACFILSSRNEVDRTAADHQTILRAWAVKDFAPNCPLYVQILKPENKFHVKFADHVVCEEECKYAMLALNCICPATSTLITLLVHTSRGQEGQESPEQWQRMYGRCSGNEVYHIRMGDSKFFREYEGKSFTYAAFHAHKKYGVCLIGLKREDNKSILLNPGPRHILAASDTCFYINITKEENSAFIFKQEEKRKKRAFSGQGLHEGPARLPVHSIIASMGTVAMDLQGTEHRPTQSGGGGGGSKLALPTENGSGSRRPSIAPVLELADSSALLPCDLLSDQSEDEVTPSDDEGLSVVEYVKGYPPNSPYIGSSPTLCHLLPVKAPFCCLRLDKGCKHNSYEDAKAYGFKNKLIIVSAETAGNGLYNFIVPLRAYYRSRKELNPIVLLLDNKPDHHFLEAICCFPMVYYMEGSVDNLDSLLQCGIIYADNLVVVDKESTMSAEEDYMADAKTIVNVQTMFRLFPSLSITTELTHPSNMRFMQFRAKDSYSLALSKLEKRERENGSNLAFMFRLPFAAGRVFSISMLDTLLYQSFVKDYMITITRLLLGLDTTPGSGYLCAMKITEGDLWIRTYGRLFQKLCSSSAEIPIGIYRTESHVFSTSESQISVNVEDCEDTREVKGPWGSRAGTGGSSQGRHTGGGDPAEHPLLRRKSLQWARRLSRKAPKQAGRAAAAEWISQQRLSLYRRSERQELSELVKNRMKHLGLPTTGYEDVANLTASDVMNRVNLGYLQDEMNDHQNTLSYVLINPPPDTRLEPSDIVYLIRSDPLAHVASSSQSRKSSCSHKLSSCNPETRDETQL
Test: KCNT1-WT-Basal-Patch Clamp Assay
Assay type: cell-based
Conditions: tetracycline inducible cell line (HEK-TREX), SyncroPatch 384PE automated patch clamp, perforated patch, holding -80 mV with step to 0 mV, room temperature
Experimental: KCNT1-WT-Basal-Patch Clamp Assay
Inhibition of KCNT1 (KNa1.1, Slack) was evaluated using a tetracycline inducible cell line (HEK-TREX). Currents were recorded using the SyncroPatch 384PE automated, patch clamp system. Pulse generation and data collection were performed with PatchController384 V1.3.0 and DataController384 V1.2.1 (Nanion Technologies). The access resistance and apparent membrane capacitance were estimated using built-in protocols. Current were recorded in perforated patch mode (10 μM escin) from a population of cells. The cells were lifted, triturated, and resuspended at 800,000 cells/ml. The cells were allowed to recover in the cell hotel prior to experimentation. Currents were recorded at room temperature. The external solution contained the following (in mM): NaCl 105, NMDG 40, KCl 4, MgCl2 1, CaCl2 5 and HEPES 10 (pH=7.4, Osmolarity ˜300 mOsm). The extracellular solution was used as the wash, reference and compound delivery solution. The internal solution contained the following (in mM): NaCl 70, KF 70, KCl 10, EGTA 5, HEPES 5 and Escin 0.01 (pH=7.2, Osmolarity ˜295 mOsm). Escin is made at a 5 mM stock in water, aliquoted, and stored at −20° C. The compound plate was created at 2× concentrated in the extracellular solution. The compound was diluted to 1:2 when added to the recording well. The amount of DMSO in the extracellular solution was held constant at the level used for the highest tested concentration. A holding potential of −80 mV with a 100 ms step to 0 mV was used. Mean current was measured during the step to 0 mV. […] The average mean current from 3 sweeps was calculated and the % inhibition of each compound was calculated. The % Inhibition as a function of the compound concentration was fit with a Hill equation to derive IC50, slope, min and max parameters. If KCNT1 inhibition was less than 50% at the highest tested concentration or if an IC50 could not be calculated, then a percent inhibition was reported in place of the IC50. In this table, “A” indicates IC50 of less than or equal to 1 μM; “B” indicates inhibition of between 1 μM to 20 μM; and “C” indicates inhibition of greater than or equal to 20 μM.

Row | SMILES | pIC50
1 | C[C@@H](C(=O)NC1CCCCC1)c1nc(-c2ccnc(C3CC3)c2)no1 (single isomer, unassigned) [Compound 3] | ≥ 6.00
2 | C[C@H](C(=O)NC1CCCCC1)c1nc(-c2ccnc(C3CC3)c2)no1 (single isomer, unassigned) [Compound 4] | ≥ 6.00
3 | C[C@@H](C(=O)N1CCCCC1)c1nc(-c2ccnc(C3CC3)c2)no1 (single isomer, unassigned) [Compound 6] | 4.70 to 6.00
4 | C[C@H](C(=O)N1CCCCC1)c1nc(-c2ccnc(C3CC3)c2)no1 (single isomer, unassigned) [Compound 7] | ≤ 4.70
5 | CC(C(=O)Nc1ccccc1)c1nc(-c2ccnc(C3CC3)c2)no1 (stereo not drawn) [Compound 1, 2-[3-(2-cyclopropyl-4-pyridyl)-1,2,4-oxadiazol-5-yl]-N-phenyl-propanamide] | ≥ 6.00
6 | CC(C(=O)NCc1ccccc1)c1nc(-c2ccnc(C3CC3)c2)no1 (stereo not drawn) [Compound 2, N-benzyl-2-(3-(2-cyclopropylpyridin-4-yl)-1,2,4-oxadiazol-5-yl)propanamide] | ≥ 6.00
7 | CC(C(=O)N1CCCCC1)c1nc(-c2ccnc(C3CC3)c2)no1 (stereo not drawn) [Compound 5, 2-(3-(2-cyclopropylpyridin-4-yl)-1,2,4-oxadiazol-5-yl)-1-(piperidin-1-yl)propan-1-one] | 4.70 to 6.00

Further lines, results first:

Row | pIC50 | SMILES
8 | ≥ 6.00 | C[C@@H](C(=O)Nc1ccccc1)c1nc(-c2ccnc(C3CC3)c2)no1 (single isomer, unassigned) [Compound 8]
9 | ≥ 6.00 | C[C@H](C(=O)Nc1ccccc1)c1nc(-c2ccnc(C3CC3)c2)no1 (single isomer, unassigned) [Compound 9]
10 | 4.70 to 6.00 | CC(C(=O)N(C)c1ccccc1)c1nc(-c2ccnc(C3CC3)c2)no1 (stereo not drawn) [Compound 10, -[3-(2-cyclopropyl-4-pyridyl)-1,2,4-oxadiazol-5-yl]-N-methyl-N-phenyl-propanamide]
11 | ≥ 6.00 | CC(C(=O)N[C@@H](C)c1ccccc1)c1nc(-c2ccnc(C3CC3)c2)no1 (stereo partly drawn) [Compound 11, 2-(3-(2-cyclopropylpyridin-4-yl)-1,2,4-oxadiazol-5-yl)-N—((S)-1-phenylethyl)propanamide]
12 | ≥ 6.00 | CC(C(=O)N[C@H](C)c1ccccc1)c1nc(-c2ccnc(C3CC3)c2)no1 (stereo partly drawn) [Compound 12, 2-(3-(2-cyclopropylpyridin-4-yl)-1,2,4-oxadiazol-5-yl)-N—((R)-1-phenylethyl)propanamide]

Reference: US20240368142A1, “KCNT1 INHIBITORS AND METHODS OF USE” (Praxis Precision Medicines, Inc., priority 2021, published 2024)
